Test results from patent US4329352A, “Piperidine derivatives of 3-hydroxy-thiophene-2-carboxylic acid esters and pharmaceutical formulations containing these compounds” (BASF Aktiengesellschaft, priority 1979, dated 1982).
Like-named read-outs stand apart in the source and are kept apart here.

Assays:
[1] = Toxicity in rats, oral administration: dose at which toxic symptoms (changes in the initial ECG, cyanosis or cramp) occur; format: in vivo, rat (Sprague Dawley); settings: for TD50 / selectivity ratio: rat, in vivo; for selectivity ratio: read-out: Q (therapeutic range): quotient of toxic dose and anti-arrhythmically effective dose (ED 50%)
Experimental: (§1) To determine the anti-arrhythmic activity, the substance is administered orally to rats (Sprague Dawley, weight 200-250 g) 45 minutes before the start of narcosis. The animals are narcotized with 100 mg/kg of sodium thiobutabarbital administered intraperitone-ally. The arrhythmogenic substance is aconitine which is infused intravenously, at a dosage rate of 0.005 mg/kg×min, 60 minutes after administration of the novel substance. In the case of untreated animals (N=52), arrhythmias are noted in the electrocardiogram after 2.74±0.07 min, and the occurrence of these can be delayed by anti-arrhythmic agents, to an extent which depends on the dose.
(§2) For further characterization of the substance, the anti-arrhythmic effect of the maximum tolerated dose is determined from the decimal-geometric dosage progression (factor ^3 .cuberoot.10) used in the experiments. In addition, the dose at which toxic symptoms (changes in the initial ECG, cyanosis or cramp) occur is determined. Moreover, the anti-arrhythmic activity of the compounds according to the invention is determined on isolated left atria of male guineapigs (Pirbright white, weight 350-450 g).

[2] = test system: aconitine-induced arrhythmia; experiment: in vivo; format: in vivo, rat (Sprague Dawley)
Experimental: as §1
(§3) The dose which prolongs the infusion duration by 50%, ie. the ED 50%, is determined from the linear relationship between log dose (mg/kg) of test substance and relative prolongation of aconitine infusion duration (Δ%).
as §2

[3] = in vivo; format: in vivo, rat (Sprague Dawley); settings: rat, in vivo; rats, oral; decimal-geometric dosage progression; read-out: Maximum effect: Dose (maximum tolerated dose)
Experimental: as §1, §3, §2

[4] = test system: isolated left atria of male guineapigs; experiment: Anti-arrhythmic activity on isolated left guineapig atria (maximum driving rate); design: species or system guineapig (Pirbright white); settings: for R.A. = relative activity (maximum sequence frequency): Procainamide = 1.00; for Maximum sequence frequency EC 50%: concentration which produces a 50% decrease in the maximum sequence frequency: Tyrode's solution pH 7.4, 32° C.
Experimental: As a criterion of the anti-arrhythmic action, the frequency (in Hz) at which the atria are just still able to follow the sequence of pulses (the maximum driving rate) is determined by automatic continuous increase in frequency. The concentration which produces a 50% decrease in maximum driving rate, ie. the ED 50%, is calculated from the linear relationship between log concentration (mg/l) and relative decrease in maximum driving rate (Δ%).

[5] = test system: isolated left atria of male guineapigs; experiment: Negatively inotropic effect on isolated left guineapig atria (decrease in contraction amplitude); design: species or system guineapig (Pirbright white); settings: for R.A. = relative activity (force of contraction): Procainamide = 1.00; for Force of contraction EC 25%: concentration which produces a 25% decrease in the force of contraction: Tyrode's solution pH 7.4, 32° C.
Experimental: Atria suspended in an organ bath (volume 125 ml) containing carbogen-saturated Tyrode's solution (pH 7.4, 32° C.) are prestressed with 1.0 g and are driven by square wave pulses of 1 Hz base rhythm and double stimulation threshold values (rheo base: 0.2-1.4 V, chronaxia: 0.3-0.5 msec).
Further, the concentration which produces a 25% decrease in amplitude, ie. the EC 25%, is determined, as a measure of the negatively inotropic effect, from the linear relationship between log concentration (mg/l) and relative change in contraction amplitude (Δ%).

[6] = rats, oral, greater than procainamide
[7] = rats, oral, maximum tolerated dose
[8] = isolated guineapig atria, compared with procainamide

Row | SMILES | TD50 ([1]; rats, oral, changes in initial ECG, cyanosis or cramp, read-out: Toxicity: dose whose administration produces the first toxic symptoms) [mg/kg] | selectivity ratio ([1]; rats, oral) | therapeutic range (toxic dose / ED 50%), relative to procainamide [1, 6] [times] | R.A. = relative activity (effective dose) ([2]; Procainamide = 1.00, rats, oral) | R.M.E. = relative maximum effect ([2]; Procainamide = 1.00, rats, oral, maximum tolerated dose) | ED50 ([2]; Rattus norvegicus, po, read-out: ED 50%: dose which prolongs the duration of aconitine infusion by 50%) [mg/kg] | Maximum effect: prolongation of duration of aconitine infusion, Δ %, at the maximum tolerated dose [2, 7] [%] | anti-arrhythmic effect on aconitine-induced arrhythmia, relative to procainamide [2, 6] [times] | MTD [3] [mg/kg] | R.A. = relative activity (maximum sequence frequency) ([4]; isolated guineapig atria) | anti-arrhythmic effect on isolated guineapig atria, relative to procainamide ([4]; as great as that of procainamide) [times] | Q: quotient of EC 25% force of contraction decrease : EC 50% maximum driving rate ([4]; isolated guineapig atria) | Maximum sequence frequency EC 50%: concentration which produces a 50% decrease in the maximum sequence frequency ([4]; isolated guineapig atria) [µg/mL] | difference between anti-arrhythmic and negatively inotropic effect (quotient EC 25% : EC 50%), in words [4, 8] | therapeutic range as far as effects on guineapig atria are concerned, in words [4, 8] | R.A. = relative activity (force of contraction) [5] | Force of contraction EC 25%: concentration which produces a 25% decrease in the force of contraction [5] [µg/mL] | TD50 ([1]; po) [mg/kg]
1 | COC(=O)c1sccc1OCC(O)CN1CCC(O)(c2ccccc2)CC1 (stereo not shown) [Example 1, 3-[2-hydroxy-3-(4-phenyl-4-hydroxy-piperidino)-propoxy]-thiophene-2-carboxylic acid methyl ester] | 464 | 9.9 | 1.6 | 3.36 | 2.19 | 46.8 | 296 | 3 to 4 | 215 | 68.7 | 69 | 2.6 | 1.47 | substantially greater than for procainamide | greater therapeutic range | 14.8 | 3.80 | 
2 | CCN(CC)CCNC(=O)c1ccc(N)cc1 [Procainamide, procainamide, reference compound] |  | 6.4 |  |  |  |  | 135 |  |  | 1.00 |  | 0.56 | 101 |  |  | 1.00 | 56.4 | 1000
